According to patent US20240174684A1, “INHIBITORS OF cGAS ACTIVITY AS THERAPEUTIC AGENTS” (BELLBROOK LABS, LLC, priority 2021, published 2024):
Values after ≈ are worked out from the molar mass of the structure shown. Read-outs that look alike come from different tables or passages of the source.

Columns and labels:
MDR1 (P-glycoprotein) = assay: MDCK-MDR1 permeability A→B; format: in vitro ADME, Canine; conditions: dog; MDCK cells expressing human MDR1, A→B; read-out: MDCK-MDR Permeability A→B
Outline: (§1)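 Permeability measured apical-to-basolateral in MDCK cells expressing human MDR1, reported as binned ranges in cm/s×10^−6. Metabolic stability determined as half-life in mouse and human hepatocytes, reported as binned ranges in minutes.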

[1] = tested on: IFNβ production in THP-1 cells; assay: IFNβ ELISA in THP-1 cells; format: cell-based, human; conditions: for IC50: Homo sapiens, THP-1 cells
Outline: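 THP-1 cells stimulated with dsDNA or cGAMP (STING activation bypassing cGAS) in the presence of compound; IFNβ secreted into medium quantified by ELISA. IC50 values reported in potency bins.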

[2] = Kinetic aqueous solubility (KSOL) in PBS, pH 7.4; format: physicochemical; conditions: aqueous buffer, kinetic from dmso stock
Description: (§2) ADME studies: Compound A and the compounds of the disclosure were tested for aqueous solubility (KSOL), metabolic stability (human and mouse […]) and permeability (Caco-2 and/or MDR1-MDCK cells) to provide an initial indication of oral bioavailability.
(§3) The favorable physicochemical properties are reflected in promising results in in vitro ADME tests. […] Metabolic stability, which was routinely measured with mouse and human hepatocytes, is outstanding, with t, greater than 2 hours for all of the compounds of the disclosure in which it has been measured. Cell permeability was measured using MDCK cells expressing human MDR1 (P-glycoprotein) to assess passive permeability as well as active transport out of the cell. […] Numerous compounds in Table 1 meet these permeability criteria, which is consistent with their design for TPSA <140 Å^2 and increased lipophilicity.

[3] = Metabolic stability in mouse hepatocytes; format: in vitro ADME; conditions: read-out: Mouse MS Stability t1/2
Description: as §2, §3
(§4) The MDCK-MDR1 permeability A ->B is shown in Table 2 below, where A represents 5-10 cm/s×10^−6; B represents 1-5 cm/s×10^−6; and C represents <1 cm/ss×10^−6. The metabolic stability half time, in both mouse and human hepatocytes, is also shown in Table 2 below, where A′ represents 100-200 minutes; B′ represents 200-300 minutes; and C′ represents >300 minutes.

[4] = Cytotoxicity, CellTiter Glo (ATP levels) and Presto Blue (reducing equivalents); format: cell-based; conditions: concentrations as high as 100 μM
Description: (§5) The reporter gene assays were used to assess off-target activity with IRF30Luc (RIG-1) or NFKB (TLR4); CellTiter Glo (ATP levels) and Presto Blue (reducing equivalents) were used to assess cytotoxicity; all assays were performed in dose response mode. […] The inventors recently began using human PBMCs to assess cellular potency in a more physiologically relevant context.

cGAS [5] = molecular target: T1, cGAS (Homo sapiens, UniProt Q8N884); assay: Cellular thermal shift assay (CETSA) in THP-1 cells; format: cell-based; conditions: heat treatment 51.5 °C
Description: Panel A is an image of a western blot of the stabilization measure; panel B is a bar graph of the stabilization measure. Heat treatment was conducted at 51.5 ° C.
(§6) CETSA was also used to confirm that the compounds are binding to cGAS in cells; THP-1 cells are used for this analysis. Compounds were tested in dose response mode by incubating with cells for 1.5 hours at 37° C., followed by pelleting and re-suspending in PBS, heating to 51.5° C. for 3 min and cooling to room temp. Cells were then lysed, debris, including denatured cGAS, was pelleted and the supernatant was analyzed for soluble cGAS by Western Blot using anti-cGAS primary Ab (Cell Signaling). Band intensity was analyzed using Image J software. Stimulation with cGAMP directly activates STING, circumventing cGAS; this was used to determine if compounds had effects on downstream components of cGAS/STING signaling. The IFN-6 ELISA was used as the primary measure of cellular potency and selectivity (Table 3) and used the reporter gene assays for assessing off-target activity with other pattern recognition receptors.

mouse cGAS = mouse cGAS (Mus musculus, UniProt Q8C6L5); assay: Transcreener cGAS enzymatic assay with mouse cGAS; format: biochemical; conditions: standard conditions, read-out: IC50 with mcGAS
Description: Structural, biochemical and biophysical analysis and selectivity profiling: Potency and MOA studies, including Mn^2+ sensitivity, were performed using the Transcreener cGAS enzymatic assay, which is manufactured at BellBrook Labs (Fitchburg, Wisconsin, USA). This homogenous cGAS enzymatic assay was developed with fluorescence polarization (FP) and time-resolved Forster resonance energy transfer (TR-FRET) readouts, as described in International Patent Publication WO 2020/142729, incorporated by reference herein in its entirety. Plates are read on a PHERAstar FSX multimode reader (BMG). The compounds of the disclosure were tested for inhibition of cGAS ([…]) using this cGAS enzymatic assay under standard conditions (100 μM ATP and GTP, 62.5 nM bp ISD, 60 minute reactions), high ATP and GTP (1 mM) to mimic physiological conditions, in the presence of 200 μM MnCl2, and with mouse cGAS under standard conditions.
Potency with mcGAS is important for vivo efficacy studies and represents a challenge for lead development because mcGAS shares only 57% amino acid identity with human enzyme and there are significant functional differences.

TLR4 pathway = assay: Reporter gene assay NFKB (TLR4); format: cell-based; conditions: concentrations as high as 100 μM
Description: as §6, §5

[6] = molecular target: isolated SEAP reporter enzyme (Homo sapiens, UniProt P05187); assay: Isolated SEAP reporter enzyme inhibition; format: biochemical
[7] = tested on: isolated Luc reporter enzyme; assay: Isolated Luc reporter enzyme inhibition; format: biochemical; conditions: at 80 μM
cGAS [8] = molecular target: T1, cGAS; assay: Transcreener cGAS enzymatic assay (FP); format: biochemical
Outline: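 Human cGAS (30 nm) inhibition, 60 min reactions, FP read-out, standard conditions 100 μM ATP and GTP plus 62.5 nM bp ISD. Also run at 1 mM ATP and GTP (physiological), with 200 μM MnCl2, and with mouse cGAS under standard conditions; IC50 reported.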

RIG-1 signaling = assay: Reporter gene assay IRF30Luc (RIG-1); format: cell-based; conditions: concentrations as high as 100 μM
Description: as §6, §5

[9] = tested on: IFN-β production in PBMCs; assay: IFNβ ELISA in human primary PBMCs; format: cell-based; conditions: PBMC
From the text: Cellular assays: The human monocyte cell line THP-1 and human primary PBMCs were used to evaluate the cellular activity of compounds with good biochemical potency. These cells produce a robust cGAS/STING-dependent type I IFN response when stimulated with dsDNA and other pathogen-associated molecular patterns, which was detected using a standard ELISA for IFNβ (R&D Systems). The TBK1 inhibitor, BX-795, which acts downstream of cGAS/STING, was used as a probe.
The ICso values for IFNB ELISA stimulated with THP-1, PBMC, DNA, and cGAMP were determined for several exemplary compounds of the invention, and are provided in Table 3 where A represents <1 μM; B represents 1-2.5 μM; C represents 2.5-10 μM; D represents 10-20 μM; and E represents >20 μM.
as §5

[10] = Metabolic stability in human hepatocytes; format: in vitro ADME; conditions: read-out: Human MS Stability t1/2
Description: as §2, §3, §4

[11] = tested on: MDCK cells expressing human MDR1 (P-glycoprotein); assay: MDCK-MDR1 permeability A→B; format: in vitro ADME, Canine
Outline: as §1

[12] = Metabolic stability in mouse liver microsomes; format: in vitro ADME; conditions: read-out: Mouse MS Stability t1/2
Description: as §2, §4

[13] = Metabolic stability in human liver microsomes; format: in vitro ADME; conditions: read-out: Human MS Stability t1/2
Description: as §2, §4

[14] = high ATP and GTP (1 mM) to mimic physiological conditions, read-out: IC50 FP Physiological
[15] = standard conditions: 100 μM ATP and GTP, 62.5 nM bp ISD, 60 minute reactions, read-out: IC50 FP Standard

T1 sequence (Q8N884 whole entry): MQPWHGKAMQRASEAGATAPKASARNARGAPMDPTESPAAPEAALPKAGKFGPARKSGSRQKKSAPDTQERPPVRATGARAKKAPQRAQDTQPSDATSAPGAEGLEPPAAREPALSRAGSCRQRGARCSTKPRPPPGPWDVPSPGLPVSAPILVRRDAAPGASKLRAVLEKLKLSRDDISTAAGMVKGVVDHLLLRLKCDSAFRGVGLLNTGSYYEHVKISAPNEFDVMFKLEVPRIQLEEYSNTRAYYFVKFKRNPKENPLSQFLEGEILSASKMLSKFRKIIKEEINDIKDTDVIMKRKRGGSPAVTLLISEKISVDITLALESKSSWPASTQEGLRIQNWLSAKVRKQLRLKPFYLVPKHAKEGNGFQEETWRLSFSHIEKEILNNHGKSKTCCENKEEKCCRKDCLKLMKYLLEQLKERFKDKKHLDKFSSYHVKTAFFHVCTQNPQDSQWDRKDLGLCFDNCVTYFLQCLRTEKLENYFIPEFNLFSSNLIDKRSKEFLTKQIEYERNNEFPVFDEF
Sequence of mouse cGAS (Q8C6L5 whole entry): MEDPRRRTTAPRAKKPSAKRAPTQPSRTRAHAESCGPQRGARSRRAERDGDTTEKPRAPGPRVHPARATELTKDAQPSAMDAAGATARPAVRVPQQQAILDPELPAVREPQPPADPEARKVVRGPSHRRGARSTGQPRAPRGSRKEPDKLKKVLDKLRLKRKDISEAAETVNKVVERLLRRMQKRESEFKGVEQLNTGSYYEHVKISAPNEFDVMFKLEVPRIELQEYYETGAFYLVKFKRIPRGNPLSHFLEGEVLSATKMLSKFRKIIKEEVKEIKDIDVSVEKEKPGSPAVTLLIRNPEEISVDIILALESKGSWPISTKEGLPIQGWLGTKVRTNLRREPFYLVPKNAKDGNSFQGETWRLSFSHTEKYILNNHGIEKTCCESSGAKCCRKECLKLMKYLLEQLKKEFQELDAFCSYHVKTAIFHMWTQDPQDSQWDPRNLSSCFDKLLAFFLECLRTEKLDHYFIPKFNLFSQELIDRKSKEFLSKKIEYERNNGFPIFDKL
Sequence of isolated SEAP reporter enzyme (P05187 23-511 limits assumed): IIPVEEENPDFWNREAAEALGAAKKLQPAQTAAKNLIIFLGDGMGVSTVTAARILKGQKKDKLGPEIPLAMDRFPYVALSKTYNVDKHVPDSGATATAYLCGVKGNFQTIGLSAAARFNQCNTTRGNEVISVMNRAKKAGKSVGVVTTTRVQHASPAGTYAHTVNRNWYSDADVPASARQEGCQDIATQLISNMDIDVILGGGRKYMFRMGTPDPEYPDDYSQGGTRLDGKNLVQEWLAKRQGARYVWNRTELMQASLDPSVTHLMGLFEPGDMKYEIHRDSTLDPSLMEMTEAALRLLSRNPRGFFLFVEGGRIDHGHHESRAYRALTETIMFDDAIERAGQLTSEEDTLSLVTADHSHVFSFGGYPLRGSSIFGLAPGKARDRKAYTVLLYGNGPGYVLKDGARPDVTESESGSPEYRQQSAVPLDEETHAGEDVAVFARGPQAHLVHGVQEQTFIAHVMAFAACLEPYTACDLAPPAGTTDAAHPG

Row | Papp A→B (MDR1 (P-glycoprotein)) | IC50 [1] | solubility kinetic [2] | half-life [3] | Stabilization of cGAS in cells (CETSA) (cGAS [5]) | IC50 (mouse cGAS) | Inhibition of isolated SEAP reporter enzyme [6] | Inhibition of isolated Luc [7] | IC50 (cGAS [8]; [14]) | IC50 (cGAS [8]; [15]) | Cellular IC50 relative to biochemical IC50 ([1]; cellular assays vs cGAS enzymatic assay at 1 mM ATP/GTP) | half-life ([3]; given as number) | half-life [10] | MDCK-MDR Permeability A→B [11] | half-life [12] | half-life [13] | Compound | Cytotoxicity [4] | Inhibition of TLR4 signaling (TLR4 pathway) | Inhibition of RIG-1 signaling (RIG-1 signaling) | IC50 [9]
1 | 1 to 5 ×10⁻⁶ cm/s | > 20 µM | 488 µM (≈ 238 µg/mL) | 1.67 to 3.33 h | stabilized cGAS | 8.3 µM | appreciably | 50% | < 0.2 µM | 0.05 to 0.1 µM |  |  |  |  |  |  | Cc1nc(N2C[C@@H](CC(=O)Nc3ccc4ncsc4c3)C[C@H]2C(=O)O)c2oc3ccccc3c2n1 [Compound 4, (2S,4R)-4-(2-(benzo[d]thiazol-6-ylamino)-2-oxyethyl)-1-(2-methylbenzofuro[3,2-d]pyrimidin-4-yl)pyrrolidine-2-carboxylic acid] | no cytotoxicity | no detectable inhibition | no detectable inhibition | 
2 | 1 to 5 ×10⁻⁶ cm/s | < 1 µM | 570 µM (≈ 327 µg/mL) |  |  |  |  |  | 0.2 to 0.5 µM | 0.1 to 0.2 µM | essentially identical | > 6 h | 1.67 to 3.33 h |  |  |  | Cc1nc(N2C[C@@H](CC(=O)Nc3ccc(-c4ccccc4)c(C(F)(F)F)c3)C[C@H]2C(=O)O)c2oc3ccccc3c2n1 [Compound 63, (2S,4R)-1-(2-methylbenzofuro[3,2-d]pyrimidin-4-yl)-4-(2-oxo-2-((2-(trifluoromethyl)-[1,1′-biphenyl]-4-yl)amino)ethyl)pyrrolidine-2-carboxylic acid] |  |  |  | 1 to 2.5 µM
3 |  | > 20 µM | 542 µM (≈ 234 µg/mL) |  |  |  |  |  |  |  |  |  |  | C (C represents <1 cm/ss×10^−6) | 1.67 to 3.33 h | 1.67 to 3.33 h | Cc1nc(N2C[C@@H](CC(=O)Nc3ccncc3)C[C@H]2C(=O)O)c2oc3ccccc3c2n1 [Compound A, (2S,4R)-1-(2-methylbenzofuro[3,2-d]pyrimidin-4-yl)-4-(2-oxo-2-(pyridine-4-ylamino)ethyl)pyrrolidine-2-carboxylic acid, reference compound] |  |  |  | 
